Experimental data: patent US10016383B2, “Inhibitors of metallo-β-lactamase-enzymes” (McMaster University, priority 2013, dated 2018)
“Also recorded” adds a separate entry of the source.

Key:
IMP-7 = assay: Incubation of AM-A with metalloenzymes in Zn2+-depleted buffer; type: biochemical; conditions: extended incubation, AM-A 0.5 mM
Method: 20 μL of the above was diluted with 180 μL nitrocefin or FAPGG substrate for the following final concentrations: Enzyme (50 nM), FAPGG (50 μM)/nitrocefin (20 μM), AM-A (50 μM). Buffer (50 mM HEPES pH 7.5, 300 mM NaCl) was stirred overnight with 2 g/100 mL Chelex-100 (Biorad; Richmond, Calif.). Assays were read in 96-well microplate format at 490 nm using a Spectramax reader (Molecular Devices) at 37° C.

VIM-2 = target: T1, VIM-2 (Escherichia coli, UniProt Q5U7L7); assay: Inactivation kinetics; type: biochemical
T1 construct: All β-lactamase overexpression constructs were generated without the leader peptide in a pET-28b plasmid containing a N-terminal His Tag; His tag (N); made in house; host or cells: E. coli BL21(DE3)
Method: NDM-1 (50 nM) was added to 20 μM nitrocefin containing AM-A in serial ½ dilutions from 8 μM. The assay was performed in 50 mM HEPES pH 7.5, 200 μL final volume. The assay was read in 96-well microplate format at 490 nm using a Spectramax reader (Molecular Devices) for 10 minutes at 37° C. VIM-2 (10 nM) was added to 20 μM nitrocefin containing AM-A in serial ½ dilutions from 16 μM. The assay was performed in 50 mM HEPES pH 7.5, 200 μL final volume. The assay was read in 96-well microplate format at 490 nm using a Spectramax reader (Molecular Devices) for 10 minutes at 37° C. as reported previously. For all assays experiments the offset between reaction initiation and the first read was ˜6s.
Rate constants characterizing the inactivation of enzyme were calculated based on the dependence of the pseudo-first order rate constant, ki, upon AM-A concentration according to the following model:
[formula] where E•Zn, A, E•Zn•A, and Zn•A are the active metalloenzyme, AM-A, the ternary metalloenzyme-AM-A complex, and AM-A-metal complex, respectively. Ki represents the dissociation constant of the ternary complex and k+2 is the rate constant for dissociation of ternary complex into inactivated enzyme (Einact) and AM-A-Zn complex. […]
[formula] […] The individual values of Ki and k+2 were determined by fitting the value of ki to equation 2 as described previously^25: […]

K. pneumoniae N11-2218 [1] = assay: Microdilution checkerboard / MIC; type: cell-based, Klebsiella pneumoniae; conditions: checkerboard MIC, NDM-1 expressing CRE
Method: (§1) FIC values were determined by standard methods^27 setting up checkerboards with 8 concentrations of each meropenem and AM-A in serial ½ dilutions. Experiments were done in duplicate and the mean used for calculation. The MIC for each compound was the lowest concentration of compound showing no growth. The FIC for each compound was calculated as the concentration of the compound in the presence of co-compound for a well showing no growth, divided by the MIC for that compound. The FIC index is the sum of the two FICs.

[2] = system: panel of 16 clinical CRE isolates; assay: FIC index determination; type: cell-based, Enterobacteriaceae; conditions: meropenem and AM-A combinations; ≤0.5 defined as synergistic
Method: as §1

AIM-expressing isolates = assay: Clinical isolate screening with meropenem; type: cell-based, Enterobacteriaceae, Acinetobacter spp. and Pseudomonas spp.; conditions: meropenem 2 μg/ml, AM-A 8 μg/ml
Method: (§2) Various concentrations of AM-A were chosen in combination with 2 mg/L of meropenem which is the EUCAST breakpoint for resistance^28. Synergistic properties of the two compounds were examined in a micro-titre tray using BHI as the growth medium (Oxford Science Park, England) and an inoculum of 0.5 MacFarland. All plates contained the control strains Escherichia coli ATCC 25922 and Pseudomonas aeruginosa ATCC 27853. Overall, 226 non-clonal clinical isolates (Enterobacteriaceae, P. aeruginosa and Acinetobacter spp.) were challenged containing one of the following MBLs: SPM-1 (n=17), AIM-1 (n=8), NDM-1 (n=67), VIM-type (n=114) or IMP-type (n=20). […] Plates were incubated at 37° C. and read after 18 hrs.

IMP-expressing isolates = assay: Clinical isolate screening with meropenem; type: cell-based, Enterobacteriaceae, Acinetobacter spp. and Pseudomonas spp.; conditions: meropenem 2 μg/ml, AM-A 8 μg/ml
Method: as §2

NDM positives isolates = assay: Clinical isolate screening with meropenem; type: cell-based, Enterobacteriaceae, Acinetobacter spp. and Pseudomonas spp.; conditions: AM-A 8 μg/ml, meropenem 2 μg/ml
Method: as §2

[3] = system: SPM-1-expressing isolates; assay: Clinical isolate screening with meropenem; type: cell-based, Enterobacteriaceae, Acinetobacter spp. and Pseudomonas spp.; conditions: meropenem 2 μg/ml, AM-A 8 μg/ml
Method: as §2

VIM positive isolates = assay: Clinical isolate screening with meropenem; type: cell-based, Enterobacteriaceae, Acinetobacter spp. and Pseudomonas spp.; conditions: AM-A 8 μg/ml, meropenem 2 μg/ml
Method: as §2

Pseudomonas spp. = assay: Clinical isolate screening with meropenem; type: cell-based, Pseudomonas aeruginosa
Method: as §2

K. pneumoniae N11-2218 [4] = assay: Mouse systemic infection, organ bacterial load; type: in vivo, CD1 mice
Source text: (§3) All animals were housed in specific pathogen-free units in the Central Animal Facility at McMaster University. All experimental protocols were approved by, and performed in accordance with the McMaster Animal Research Ethics Board. Female CD1 mice were purchased from Charles River.
(§4) Mice were infected intraperitoneally (ip) with a dose of 2×10^6 colony forming units (cfu) of Klebsiella pneumoniae N11-2218 for all organ bacterial load experiments, or with a dose of 5×10^7cfu for all survival experiments. For all organ bacterial load experiments, mice were euthanized 48 hours post infection, and spleen and liver were harvested. Organs were placed into 1 mL sterile PBS on ice, and then homogenized (Mixer Mill 400; Retsch). Organ homogenates were then serially diluted in PBS, and plated on Brilliant Green agar (Oxoid) for cfu enumeration. For survival curves, mice were monitored for endpoint. For all experiments, mice were treated 30 minutes post infection with a specified subcutaneous dose of either PBS, meropenem, AM-A inhibitor, or a combination of both antibiotic and inhibitor.

K. pneumoniae N11-2218 [5] = assay: Mouse lethal systemic infection, survival; type: in vivo, CD1 mice
Source text: as §3, §4

N[C@H](CN[C@H](CN[C@@H](CC(=O)O)C(=O)O)C(=O)O)C(=O)O [AM-A, aspergillomarasmine A]
inhibition of activity in IMP-7 (IMP-7): ~70% | Ki (VIM-2): 7 nM | k+2 (inactivation rate constant) (VIM-2; time-dependent inactivation): 0.0065 s⁻¹ | synergy between meropenem and AM-A (K. pneumoniae N11-2218 [1]): synergy | Fractional inhibitory concentration (FIC) index [2]: < 0.1 | potentiation of meropenem / susceptibility to combination (AIM-expressing isolates): very little potentiation; also recorded: remained resistant | potentiation of meropenem / susceptibility to combination (IMP-expressing isolates): very little potentiation; also recorded: remained resistant | isolates with meropenem sensitivity restored (NDM positives isolates): 88% | susceptibility to meropenem/AM-A combination (NDM positives isolates): highly susceptible | potentiation of meropenem / susceptibility to combination [3]: very little potentiation; also recorded: remained resistant | isolates with meropenem sensitivity restored (VIM positive isolates): 90% | susceptibility to meropenem/AM-A combination (VIM positive isolates): highly susceptible | activity in Pseudomonas spp. (potentiation of meropenem) (Pseudomonas spp.): active | bacterial load in tissues (K. pneumoniae N11-2218 [4]; AM-A alone): unaffected | bacterial load in the spleen (K. pneumoniae N11-2218 [4]; combination meropenem 10 mg/kg + AM-A 10 mg/kg, single dose, 48 hours post infection): significantly reduced | prevention of lethal infection (K. pneumoniae N11-2218 [5]; monotherapy (alone)): unable to prevent lethal infection | survival (K. pneumoniae N11-2218 [5]; single dose of combination meropenem 10 mg/kg + AM-A 30 mg/kg, 5 days following infection): > 95%
